Data on one compound can be found in US10981926B2 (Janssen Pharmaceutica NV, priority 2016, dated 2021).

Common to all, as to format: cell-based
Experiment [1] has as its target F876L-VP16 (Homo sapiens (Human), UniProt P10275, F877L). The experiment in a line: AR-VP16 DNA Binding Assay (VP16 F876L). The settings on record: HepG2, antagonist mode, 1 nM R1881, 48 hours. How it is done: HepG2 cells were maintained in EMEM supplemented with 10% FBS. One day before transfection, the media was changed to EMEM with 10% CSS. T-150 flasks were transiently transfected using 120 μL Lipofectamine 2000 (Life Technologies), 24.5 μg AR-VP16 or F876L-VP16 (expression vector) and 49 μg 4×ARE-Luciferase (reporter vector) in OptiMEM and the flasks were incubated overnight. Cells were then trypsinized, counted and resuspended at 500,000 cells/mL. For agonist mode, the compounds were serially diluted and 50 μL of the compound was added per well. 50 μL of the cells were added to each well and incubated for 48 hours. For antagonist mode, a final concentration of 90 pM (VP16 AR) or 1 nM (VP16 F876L) R1881 was added to the plate and incubated for 48 hours. The plates were then assayed using SteadyGlo and read on the Envision. Percent Stimulation and Inhibition were determined and analyzed using GraphPad Prism.

Experiment [2] deals with AR H874Y (Homo sapiens (Human), UniProt P10275, H875Y). As to the kind of experiment: Luciferase Transcriptional Reporter Assay, AR H874Y (HepG2). How it is done: HepG2 cells were maintained in EMEM supplemented with 10% FBS. One day before transfection, the media was changed to EMEM with 10% CSS. T-150 flasks were transiently transfected using 120 μL Lipofectamine 2000 (Life Technologies), 30 μg mutant cDNA (expression vector)—mutant cDNA tested were L701H, T877A, W741C and H874Y—and 40 μg 4×ARE-Luciferase (reporter vector) in OptiMEM and the flasks were incubated overnight. Cells were then trypsinized, counted and resuspended at 500,000 cells/mL. For agonist mode, the compounds of Formula (I) were serially diluted and 50 μL of the compound was added per well. 50 μL of the cells were added to each well and incubated for 48 hours. For antagonist mode, a final concentration of 90 pM R1881 was added to the diluted compounds and incubated for 48 hours. The plates were then assayed using SteadyGlo and read on the Envision. Percent Stimulation and Inhibition were determined and analyzed using GraphPad Prism.
F876L agonism was evident at 3 and 10 μM (5%) but zero at 30 μM. The antagonistic (IC50) and agonistic (EC50) values for each of the AR cDNA used in the reporter assays are summarized. All values are calculated relative to the activity of R1881 induced androgen receptor activity (n≥3). Also indicated are the maximal inhibition and extent of induction of androgen dependent signaling (%).

For experiment [3], the target named is AR in LNCaP cells (Homo sapiens (Human), UniProt P10275, T878A). As to the kind of experiment: LNCaP AR Localization Assay. The settings on record: 4 h, read-out: Inhibition of translocation. How it is done:
LNCaP cells were expanded in RPMI 10% FBS in T150 flasks. The cells were dislodged with 0.25% Trypsin, washed in complete media, centrifuged (300 g, 3 min), and the supernatant aspirated. The cells were resuspended in RPMI phenol-red free media with 1% charcoal-stripped serum (CSS) and counted using a ViCELL (Beckman-Coulter). Three million cells in 7 mL of RPMI CSS were seeded into 100 mm dishes and incubated overnight at 37° C. 5% CO2. The following morning, compound dilutions were prepared in RPMI CSS using 50 mM stock solutions and added directly to the cells to obtain the final concentration of 10 μM. The dishes were placed into the incubator for 4 h. After 4 h, cell scrapers were used to dislodge the cells and the media/cell solution was centrifuged, supernatant aspirated, and then washed with Cell Wash Buffer (Protein Simple). The pellets were stored at −80° C. or processed immediately using the Subcellular Protein Fractionation Kit for Cultured Cells (Thermo-Fisher). The fractions obtained from this kit were stored at −80° C. Later, the samples' protein concentration was determined using the BCA Assay Kit (Thermo-Fisher) and the fraction lysates normalized to 0.6 mg/mL. The lysates were run on the Wes Simple Western platform (ProteinSimple). The data was analyzed, normalized to the total AR, and plotted in GraphPad Prism. […]

In experiment [4] the target is AR-FL and AR-V7 in 22RV1 cells. As to the kind of experiment: 22RV1 AR-FL and AR-V7 Transcriptional Reporter Assay. How it is done: (§1) 22RV1 were obtained from ATCC and cultured in RPMI 1640 supplemented with 10% FBS. Cells were seeded at a density of 15,000 cells/well into Greiner 384-well, white, optical-bottom plates in RPMI 1640 phenol red-free medium with 1% charcoal stripped FBS and incubated for 2 days at 37° C. The cells were treated with a compound or Formula (I) in 12-point dose-response, both in the presence and absence of 0.1 nM R1881 for 18-24 hrs. At the end of assay, Steady-Glo reagent (Promega) was added to each well according to the manufacturer's instructions, placed on a shaker at 300 rpm for 10 min, and luminescence recorded using an EnVision plate reader (Perkin Elmer). The data was exported to GraphPad Prism and analyzed using the Four Parameter equation to obtain IC50 values for each compound. Each compound was tested in at least three independent experiments.

The subject of experiment [5] is 22RV1 cells. As to the kind of experiment: 22RV1 Proliferation Assay. The settings on record: Homo sapiens, 120 h. How it is done:
as §1, with “of 4,500” for “of 15,000”, “compound of” for “compound or”, “12-point dose-response” for “12-point dose-response,”, “for 5 days. To determine cell viability, CellTiter-Glo” for “for 18-24 hrs. At the end of assay, Steady-Glo”

By IC50 is commonly meant the concentration needed to halve the response being measured. Usually Emax stands for the size of the effect at its maximum, as opposed to the concentration needed. What is called inhibition is the relative decrease from the control value, in per cent.

Molecules are shown by their SMILES. Like-named read-outs stand apart in the source and are kept apart here.

AR H874Y, sequence (P10275 whole entry H875Y): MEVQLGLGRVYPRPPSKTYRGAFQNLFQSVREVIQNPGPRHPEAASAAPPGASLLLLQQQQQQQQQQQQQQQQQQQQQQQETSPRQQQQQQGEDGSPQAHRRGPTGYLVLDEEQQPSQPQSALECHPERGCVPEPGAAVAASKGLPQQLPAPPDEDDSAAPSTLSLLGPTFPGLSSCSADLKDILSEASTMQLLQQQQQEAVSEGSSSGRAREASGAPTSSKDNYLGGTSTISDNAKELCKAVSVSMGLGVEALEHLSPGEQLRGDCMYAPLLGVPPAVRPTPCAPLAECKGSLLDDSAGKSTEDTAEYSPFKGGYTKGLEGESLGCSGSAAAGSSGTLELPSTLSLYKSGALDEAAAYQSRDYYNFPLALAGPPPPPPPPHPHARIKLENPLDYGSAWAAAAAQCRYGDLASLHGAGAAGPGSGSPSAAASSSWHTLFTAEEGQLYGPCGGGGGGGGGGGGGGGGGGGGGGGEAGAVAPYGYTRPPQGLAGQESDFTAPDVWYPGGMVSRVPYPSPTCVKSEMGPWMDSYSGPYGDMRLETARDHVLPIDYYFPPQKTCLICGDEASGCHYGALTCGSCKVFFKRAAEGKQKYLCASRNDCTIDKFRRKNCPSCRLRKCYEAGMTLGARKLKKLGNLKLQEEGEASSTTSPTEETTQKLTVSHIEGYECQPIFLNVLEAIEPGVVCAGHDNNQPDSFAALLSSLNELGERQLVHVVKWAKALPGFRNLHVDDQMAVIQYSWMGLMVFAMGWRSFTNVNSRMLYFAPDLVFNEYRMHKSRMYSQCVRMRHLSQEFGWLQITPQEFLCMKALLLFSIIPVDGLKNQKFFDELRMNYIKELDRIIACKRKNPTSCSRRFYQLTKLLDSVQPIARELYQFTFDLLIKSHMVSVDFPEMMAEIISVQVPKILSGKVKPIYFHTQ
F876L-VP16, sequence (P10275 whole entry F877L): as the sequence (P10275 whole entry H875Y) above, with Y875H, F877L counted along it
AR in LNCaP cells, sequence (P10275 whole entry T878A): as the sequence (P10275 whole entry H875Y) above, with Y875H, T878A counted along it

On to `N#Cc1ncc(N2C(=O)C3(CCC3)N(c3ccc(OC4CCNCC4)nc3)C2=S)cc1C(F)(F)F` [Cpd 43, 5-[5-oxo-8-[6-(4-piperidyloxy)-3-pyridyl]-7-thioxo-6,8-diazaspiro[3.4]octan-6-yl]-3-(trifluoromethyl)pyridine-2-carbonitrile], for which the IC50 was determined as 0.015 µM in experiment [1]; 16.8 µM in experiment [2] (HepG2, antagonist mode, 90 pM R1881, 48 hours, read-out: Antagonism IC50, AR construct H874Y); 121 µM in experiment [4] (22RV1, in the absence of 0.1 nM R1881, read-out: IC50, agonist mode); 0.348 µM in experiment [4] (22RV1, in the presence of 0.1 nM R1881, read-out: IC50, antagonist mode); 492 µM in experiment [5] (22RV1, in the absence of 0.1 nM R1881, 5 days, read-out: IC50, agonist mode); 260 µM in experiment [5] (22RV1, in the presence of 0.1 nM R1881, 5 days, read-out: IC50, antagonist mode). Moreover, the Emax in experiment [2] (HepG2, agonist mode, relative to R1881, read-out: Agonism % Emax, AR construct H874Y) amounted to 0%; in experiment [2] (HepG2, antagonist mode, maximal inhibition, read-out: Antagonism % Emax, AR construct H874Y) it was 80%. For the same compound, the inhibition at 10 µM in experiment [3] was determined as 50%.
